molecular target: T1, human S1P1 (Homo sapiens, UniProt P21453); assay: 35S-GTPγS binding assay using a membrane prepared from CHO cells which stably express S1P1 receptor; type: biochemical; conditions: CHO cell membrane fraction stably expressing human S1P1, read-out: EC50 (concentration of agonist required to give 50% of its own maximum increase ratio), human S1P1
T1 construct: expressed in transfected cells
Procedure: ^35S-GTPγS Binding Assay Using a Membrane Prepared from CHO Cells Which Stably Express S1P1 Receptor
Functional activation of human S1P1 by the compounds was determined based on quantification of ^35S-GTPγS binding to G protein due to the receptor activation, by using a cell membrane fraction prepared from CHO cells in which human S1P1 are stably expressed. As for human S1P1, the above described human S1P1 was used. Membrane proteins as prepared and various concentrations of sphingosine-1-phosphate or the compounds diluted in a solvent such as DMSO were incubated in a solution comprising 20 mM Tris-Cl (pH 7.5), 100 mM NaCl, 10 mM MgCl2, […] (Upstate), 0.1% BSA (fatty acid free, Sigma) and 25 pM ^35S-GTPγS (specific activity 1250 Ci/mmol) in 96 well microtiter plates. Binding was performed by incubating them for 90 minutes at room temperature, and then terminated by harvesting the membrane proteins onto multiscreeen harvest FB plates (Millipore) using Millipore multiscreen separation system. After drying the harvest plates at least for 12 hours, 25 μl of MicroScint-O (Perkin Elmer) was added to each well and radioactivity was measured using a Top Counter.
Having the value measured for the well to which a solvent has been added as a control value, the agonist activity of the compounds was determined by comparing the increase in the well to which a test compound has been added to the control value, and therefore an increase ratio for each concentration of the compounds was obtained. EC50 values were culcurated as defined to be the concentration of agonist required to give 50% of its own maximum increase ratio.

T1 sequence (P21453 whole entry): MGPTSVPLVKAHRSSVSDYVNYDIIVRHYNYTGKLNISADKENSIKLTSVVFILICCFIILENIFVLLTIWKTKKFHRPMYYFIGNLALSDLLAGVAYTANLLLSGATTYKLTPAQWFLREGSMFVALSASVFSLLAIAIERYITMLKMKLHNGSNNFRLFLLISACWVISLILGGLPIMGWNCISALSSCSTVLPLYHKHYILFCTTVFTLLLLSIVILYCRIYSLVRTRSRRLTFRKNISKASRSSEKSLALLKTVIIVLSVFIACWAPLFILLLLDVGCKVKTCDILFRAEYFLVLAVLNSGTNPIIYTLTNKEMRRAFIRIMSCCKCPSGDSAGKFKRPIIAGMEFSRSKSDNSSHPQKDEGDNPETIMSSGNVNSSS

For `Cc1cc(-c2nc(-c3ccc4c(c3)CCC4N[C@H]3C[C@H](C(=O)O)C3)no2)ccc1-c1cccc(F)c1C(F)(F)F` (stereo partly drawn) [Example 39], which EC50 is on record?
The EC50 was < 10 nM.

With `Cc1cc(-c2nc(-c3ccc4c(c3)CCC4N[C@H]3C[C@H](C(=O)O)C3)no2)c(F)cc1-c1ccccc1C(F)(F)F` (stereo partly drawn) [Example 30] as the compound, how does the EC50 read?
Its EC50 is < 10 nM.

For `Cc1cc(-c2nc(-c3ccc4c(c3)CCC4N[C@H]3C[C@H](C(=O)O)C3)no2)ccc1-c1cccc(F)c1` (stereo partly drawn) [Example 4], which EC50 is on record?
The EC50 was < 10 nM.

For `Cc1cc(-c2nc(-c3ccc4c(c3)CCC4N[C@H]3C[C@H](C(=O)O)C3)no2)ccc1-c1c(F)ccc(C)c1Cl` (stereo partly drawn) [Example 43], which EC50 is on record?
The EC50 was < 10 nM.

For `Cc1cc(-c2nc(-c3ccc4c(c3)CCC4N[C@H]3C[C@H](C(=O)O)C3)no2)c(F)cc1-c1ccoc1` (stereo partly drawn) [Example 13], which EC50 is on record?
The EC50 was < 10 nM.

Which EC50 does the source give for `Cc1cc(-c2nc(-c3ccc4c(c3)CN([C@H]3C[C@H](C(=O)O)C3)C4)no2)ccc1-c1ccccc1F` [Example 84] here?
The EC50 was < 10 nM.

Which EC50 does the source give for `COc1cccc(-c2ccc(-c3nc(-c4ccc5c(c4)CCC5N[C@H]4C[C@H](C(=O)O)C4)no3)cc2C)c1F` (stereo partly drawn) [Example 38] here?
Its EC50 is < 10 nM.

With `Cc1cc(-c2nc(-c3ccc4c(c3)CCC4N[C@H]3C[C@H](C(=O)O)C3)no2)ccc1-c1cc(Cl)ccc1F` (stereo partly drawn) [Example 35] as the compound, how does the EC50 read?
Its EC50 is < 10 nM.

Which EC50 does the source give for `Cc1cc(-c2nc(-c3ccc4c(c3)CN([C@H]3C[C@H](C(=O)O)C3)C4)no2)ccc1-c1ccccc1Cl` [Example 66] here?
Its EC50 is < 10 nM.

For `Cc1cc(-c2nc(-c3ccc4c(c3)CN([C@H]3C[C@H](C(=O)O)C3)C4)no2)c(F)cc1-c1cccc(F)c1F` [Example 93], which EC50 is on record?
Its EC50 is < 10 nM.

Which EC50 does the source give for `Cc1cc(-c2nc(-c3ccc4c(c3)CCC4N[C@H]3C[C@H](C(=O)O)C3)no2)ccc1-c1cccc(Cl)c1C(F)(F)F` (stereo partly drawn) [Example 50] here?
Its EC50 is < 10 nM.

With `Cc1cc(-c2nc(-c3ccc4c(c3)CCC4N[C@H]3C[C@H](C(=O)O)C3)no2)ccc1-c1ccccc1OC(F)(F)F` (stereo partly drawn) [Example 17] as the compound, how does the EC50 read?
The EC50 was < 10 nM.

Which EC50 does the source give for `Cc1cc(-c2nc(-c3ccc4c(c3)CCC4N[C@H]3C[C@H](C(=O)O)C3)no2)ccc1-c1cc(C(F)(F)F)ccc1F` (stereo partly drawn) [Example 36] here?
The EC50 was < 10 nM.

For `Cc1cc(-c2nc(-c3cc(Cl)c4c(c3)CN([C@H]3C[C@H](C(=O)O)C3)C4)no2)ccc1-c1ccccc1` [Example 77], which EC50 is on record?
The EC50 was < 10 nM.

For `Cc1cc(-c2nc(-c3ccc4c(c3)CCC4N[C@H]3C[C@H](C(=O)O)C3)no2)ccc1-c1ccoc1` (stereo partly drawn) [Example 14], which EC50 is on record?
The EC50 was < 10 nM.

Which EC50 does the source give for `Cc1cc(-c2nc(-c3ccc4c(c3)CCC4N[C@H]3C[C@H](C(=O)O)C3)no2)ccc1-c1cscc1C` (stereo partly drawn) [Example 25] here?
Its EC50 is < 10 nM.

Which EC50 does the source give for `Cc1cc(-c2nc(-c3ccc4c(c3)CCC4N[C@H]3C[C@H](C(=O)O)C3)no2)ccc1-c1c(F)ccc(F)c1F` (stereo partly drawn) [Example 45] here?
Its EC50 is < 10 nM.

Which EC50 does the source give for `O=C(O)[C@H]1C[C@H](N2Cc3ccc(-c4noc(-c5ccc(-c6ccccc6F)c(Cl)c5)n4)cc3C2)C1` [Example 68] here?
The EC50 was < 10 nM.

Which EC50 does the source give for `Cc1cc(-c2nc(-c3ccc4c(c3)CCC4N[C@H]3C[C@H](C(=O)O)C3)no2)c(F)cc1-c1ccccc1F` (stereo partly drawn) [Example 26] here?
The EC50 was < 10 nM.

With `Cc1cc(-c2nc(-c3ccc4c(c3)CCC4N[C@H]3C[C@H](C(=O)O)C3)no2)ccc1-c1cccc(F)c1F` (stereo partly drawn) [Example 28] as the compound, how does the EC50 read?
The EC50 was < 10 nM.

Which EC50 does the source give for `Cc1cc(-c2nc(-c3ccc4c(c3)CCC4NC3CC(C(=O)O)C3)no2)ccc1-c1cccc([N+](=O)[O-])c1C(F)(F)F` (stereo not drawn) [Example 49] here?
Its EC50 is < 10 nM.

For `Cc1cc(-c2nc(-c3ccc4c(c3)CCC4N[C@H]3C[C@H](C(=O)O)C3)no2)ccc1-c1cccc(F)c1C#N` (stereo partly drawn) [Example 64], which EC50 is on record?
The EC50 was < 10 nM.

For `Cc1cc(-c2nc(-c3ccc4c(c3)CCC4N[C@H]3C[C@H](C(=O)O)C3)no2)ccc1-c1cccc(C)c1F` (stereo partly drawn) [Example 37], which EC50 is on record?
Its EC50 is < 10 nM.

Which EC50 does the source give for `Cc1cc(-c2nc(-c3ccc4c(c3)CCC4N[C@H]3C[C@H](C(=O)O)C3)no2)ccc1-c1ccccc1C#N` (stereo partly drawn) [Example 59] here?
The EC50 was < 10 nM.

With `Cc1cc(-c2nc(-c3ccc4c(c3)CCC4N[C@H]3C[C@H](C(=O)O)C3)no2)c(F)cc1-c1ccccc1OC(F)(F)F` (stereo partly drawn) [Example 24] as the compound, how does the EC50 read?
Its EC50 is < 10 nM.

tested on: not given; assay: not given; conditions: rats, intravenous administration, Non-Patent Document 2; cited from earlier work

With `CCCCCCCCCCCCC/C=C/[C@@H](O)[C@@H](N)COP(=O)(O)O` [sphingosine 1-phosphate] as the compound, how does the “effect on heart rate” value read?
The value was “decreases the heart rate”.

tested on: rat having arthritis caused by an adjuvant; assay: Animal model having arthritis caused by an adjuvant; type: in vivo; conditions: female Lewis rat, oral once a day, twenty-one days after the administration
Procedure: Animal Model Having Arthritis Caused by an Adjuvant
Seven-week old female Lewis rat is used for the evaluation. After measuring the volume of the hind leg of the rat, M. tuberculosis H37 RA (manufactured by Difco, 500 μg/100 μl) which has been suspended in fluid paraffin as an adjuvant, is subcutaneously injected in the sole of rear left foot of the rat to prepare a rat having arthritis caused by an adjuvant. The compounds to be tested are suspended in 1% methyl cellulose solution, and force the animal to be orally administered with the suspension into the stomach by using a sonde, once a day for twenty-one days from the start of the adjuvant injection. Evaluation of arthritis is carried out by measuring volume of the foot of each animal by using a plethysmometer (manufactured by UGO BASILE). By comparing the value for the group administered with the compounds of the present invention with the solvent administered group, effect of the compounds is determined. Specifically, the swelling of the sole of the rear left foot of the solvent administered group is taken as 100%, and in view of the swelling of the animals of the compound administered group, control % values are calculated. […]

For `Cc1cc(-c2nc(-c3ccc4c(c3)CCC4N[C@H]3C[C@H](C(=O)O)C3)no2)ccc1-c1ccccc1.Cl` (stereo partly drawn) [Example 1, 1,3-Trans-3-(5-(5-(2-methylbiphenyl-4-yl)-1,2,4-oxadiazol-3-yl)-2,3-dihydro-1H-inden-1-ylamino)cyclobutanecarboxylic acid hydrochloride salt], which “ED50 (dosage required to reduce the swelling of sole of the rear left foot by 50%)” value is on record?
Its value is “less than 1 mg/kg”.

tested on: peripheral lymphocytes; assay: Evaluation of peripheral blood lymphocyte reduction; type: in vivo; conditions: po, 6 h, rat, orally administered, six hours after the administration, read-out: ED50 (dosage required to reduce number of lymphocytes by 50%)
Procedure: Evaluation of Peripheral Blood Lymphocyte Reduction
The compound or a solvent is orally administered to a rat. 3, 6, 24, 48 or 72 hours after the administration of the compounds, blood is drawn from the rat tail. Hematological testis carried out for the whole blood sample. Using an automated analyzer (Sysmex 2000Xi), total number of peripheral lymphocytes is obtained. By having at least three animals per group, activity of the compound on the total number of peripheral lymphocytes was evaluated. Lymphocyte reduction caused by the compound administration was evaluated via comparison with an animal group which had received the solvent only. Specifically, average number of the lymphocytes for the solvent administered group was taken as 100%, and from average number of the lymphocytes for the compound administered group, control % value was calculated. Further, in view of the dosage of the compound and the dosage of the compound that is required to reduce number of lymphocytes by 50% six hours after the administration compared to the control % value was calculated as ED50.

For `Cc1cc(-c2nc(-c3ccc4c(c3)CCC4NC3CC(C(=O)O)C3)no2)c(F)cc1-c1cccc(C(F)(F)F)c1C(F)(F)F.Cl` (stereo not drawn) [Example 48], which ED50 is on record?
The ED50 was < 1 mg/kg.

Which ED50 does the source give for `Cc1cc(-c2nc(-c3ccc4c(c3)CCC4NC3CC(C(=O)O)C3)no2)ccc1-c1cccc(F)c1.Cl` (stereo not drawn) [Example 4] here?
The ED50 was < 1 mg/kg.

Which ED50 does the source give for `Cc1cc(-c2nc(-c3ccc4c(c3)CCC4NC3CC(C(=O)O)C3)no2)ccc1-c1cccc(F)c1F.Cl` (stereo not drawn) [Example 28] here?
Its ED50 is < 1 mg/kg.

Which ED50 does the source give for `Cc1cc(-c2nc(-c3ccc4c(c3)CCC4NC3CC(C(=O)O)C3)no2)c(F)cc1-c1cccc(F)c1F.Cl` (stereo not drawn) [Example 32] here?
The ED50 was < 1 mg/kg.

With `Cc1cc(-c2nc(-c3ccc4c(c3)CCC4NC3CC(C(=O)O)C3)no2)ccc1-c1cc(F)ccc1F.Cl` (stereo not drawn) [Example 29] as the compound, how does the ED50 read?
The ED50 was < 1 mg/kg.

tested on: not given; assay: not given; conditions: reported in Non-Patent Document 1; cited from earlier work

Which “side effect after administration” value does the source give for `CCCCCCCCc1ccc(CCC(N)(CO)CO)cc1` [FTY720] here?
The value was “bradycardia is found after administration”.

Source: US20090298894A1, “AMINO ACID COMPOUNDS” (Asahi Kasei Pharma Corporation, priority 2008, published 2009)
